The test system of test [1] is MnSOD mRNA. The test can be described thus: Northern blot of MnSOD mRNA in HCAECs. Format: cell-based, human. Here is the method:
Cell culture. Human coronary artery endothelial cells (HCAECs) (Clonetics Corporation, San Diego, Calif., USA) and human pulmonary artery endothelial cells (HPAECs) were grown in Endothelial Growth Medium-2-MV (EGM-2-MV) BulletKit (Clonetics Corporation, San Diego, Calif., USA). At 80-90% confluence, the cells were serum-starved in DMEM containing 0.5% FBS for 24 hours and subsequently treated with VEGF-supplemented medium for the times indicated. Human recombinant VEGF was purchased from PeproTech, Inc. (Rocky Hill, N.J., USA). […] In other studies, the serum-starved cells were pretreated with the MEK inhibitor PD98059 at a final concentration of 50 μM or a specific PKC inhibitor bisindolylmaleimide I (BIM; CalBiochem, San Diego, Calif., USA) at a final concentration of 5 μM for 30 minutes prior to addition of growth factors. An equal amount of DMSO was added to the control plates. Northern blot analyses. Ten micrograms total RNA was loaded on a 0.7% formaldehyde-containing agarose gel. The RNA was transferred to nylon membrane, covalently cross-linked with UV radiation, prehybridized for 6 hours, and hybridized for 18 hours at 42° C. with a [^32P]dCTP-labeled cDNA probe containing MnSOD or eNOS cDNA sequence. The membranes were subsequently stripped and probed with a radiolabeled 18S-ribosome probe. For actinomycin D experiments, HCAEC cells were pretreated with 10 μg/ml actinomycin D (Sigma Chemical Company, St. Louis, Mo., USA) for 30 minutes before addition of VEGF and were harvested for total RNA one hour later.
To determine whether VEGF induced expression of MnSOD in primary endothelial cell cultures, HCAECs and HPAECs were serum starved for 24 hours, treated with 40 ng/ml VEGF for 0, 0.5, 1, 2, 4, 12 and 24 hours, and then harvested for total RNA. Northern blots were performed and probed for human MnSOD. […] The membranes were then stripped and reprobed for eNOS.
To determine whether the response of MnSOD to VEGF was mediated by ROS, HCAECs were serum starved and then treated with VEGF in the absence or presence of inhibitors of NADPH oxidase (DPI, apocynin), xanthine oxidase (allopurinol) and nitric oxide synthase (L-NAME).

The test system of test [2] is ROS. Kind of test: ROS generation: DCF oxidation by flow cytometry in DCFDA-labeled HCAECs. Format: cell-based, human. The note with it: relative to basal rate of control cells. As to the method:
(§1) Western blot analyses. Whole cell protein extracts were prepared from serum-starved HCAECs and HPAECs one hour following addition of growth factor-supplemented or mock-treated media. Cells were washed twice with cold phosphate-buffered saline, harvested with a cell scraper, and lysed in ice-cold lysis buffer containing 20 mM HEPES, pH 7.5, 150 mM NaCl, 1% NP-40, 0.1% SDS, 1 mM EDTA, 1 mM DTT, 0.5 mM phenylmethylsulfonyl fluoride (PMSF), and the protease inhibitor cocktail (Boehringer Mannheim, Mannheim, Germany) for one hour. The resulting lysates were centrifuged at 10,000× g for 20 minutes and the supernatants were saved as whole cell protein extracts. Forty micrograms of protein were separated by 10% SDS-PAGE and electrotransferred to nitrocellulose membranes. Membranes were blocked with 5% nonfat dry milk in Tris-buffered saline with 0.1% Tween 20 for one hour at room temperature. The blot was incubated with primary rabbit polyclonal anti-MnSOD IgG (1:1000 dilution) (Santa Cruz Biotechnology Inc., Santa Cruz, Calif., USA) overnight at 4° C., followed by secondary antibody goat-anti-rabbit horseradish peroxidase conjugate (1:1000 dilution) (Pierce, Rockford, Ill., USA). The blot was washed extensively between each incubation step. Peroxidase activity was visualized with an enhanced chemiluminescense substrate system (Amersham, Arlington Heights, Ill., USA). Membranes were stripped and probed for eNOS and β-actin. Flow cytometry. Endothelial cells were labeled with DCFDA and oxidation of DCF was measured by flow cytometry.
To test whether VEGF increases ROS production in endothelial cells, HCAECs were labeled with […] DCFDA and oxidation of DCF was measured by flow cytometry. […] PMS is known to induce free oxygen radicals.
Background: A flow cytometer gives signals particle by particle.

Test [3] relates to MnSOD mRNA. The test can be described thus: Northern blot of MnSOD mRNA in organs of mice after intraperitoneal VEGF. Format: in vivo, mouse. The note with it: four hours after intraperitoneal injection of 20 μg VEGF. Here is the method: Mice and injection of growth factors. Female FVB mice (4 to 8 weeks old; 18 to 22 grams) were obtained from Taconic (Germantown, N.Y., USA). All protocols were approved by the Institutional Animal Care and Use Committee of the Beth Israel Deaconess Medical Center. Mice were injected intraperitoneally with VEGF (1.0 μg/g body weight).
Injection of VEGF into the intraperitoneal cavity of mice results in widespread distribution of the growth factor and phosphorylation of the VEGF receptor, Flk-1. In this study, therefore, organs were removed from mice four hours following intraperitoneal injection of either normal saline or 20 μg VEGF and harvested for total RNA. Northern blot analyses were then carried out to determine whether VEGF induced the expression of a panel of genes, including MnSOD.

The subject of test [4] is MnSOD mRNA. The note with it: HPAEC, 40 ng/ml VEGF. Here is the method:
(§2) Cell culture. Human coronary artery endothelial cells (HCAECs) (Clonetics Corporation, San Diego, Calif., USA) and human pulmonary artery endothelial cells (HPAECs) were grown in Endothelial Growth Medium-2-MV (EGM-2-MV) BulletKit (Clonetics Corporation, San Diego, Calif., USA). At 80-90% confluence, the cells were serum-starved in DMEM containing 0.5% FBS for 24 hours and subsequently treated with VEGF-supplemented medium for the times indicated. Human recombinant VEGF was purchased from PeproTech, Inc. (Rocky Hill, N.J., USA). In inhibition studies, the serum-starved HCAEC cells were preincubated with diphenyleneiodonium (DPI), apocynin, allopurinol, L-NAME, or anthrone for one hour and then incubated in the absence or presence of 40 ng/ml VEGF for another hour. In other studies, the serum-starved cells were pretreated with the MEK inhibitor PD98059 at a final concentration of 50 μM or a specific PKC inhibitor bisindolylmaleimide I (BIM; CalBiochem, San Diego, Calif., USA) at a final concentration of 5 μM for 30 minutes prior to addition of growth factors. An equal amount of DMSO was added to the control plates. Northern blot analyses. Ten micrograms total RNA was loaded on a 0.7% formaldehyde-containing agarose gel. The RNA was transferred to nylon membrane, covalently cross-linked with UV radiation, prehybridized for 6 hours, and hybridized for 18 hours at 42° C. with a [^32P]dCTP-labeled cDNA probe containing MnSOD or eNOS cDNA sequence. The membranes were subsequently stripped and probed with a radiolabeled 18S-ribosome probe. For actinomycin D experiments, HCAEC cells were pretreated with 10 μg/ml actinomycin D (Sigma Chemical Company, St. Louis, Mo., USA) for 30 minutes before addition of VEGF and were harvested for total RNA one hour later.
(§3) To determine whether VEGF induced expression of MnSOD in primary endothelial cell cultures, HCAECs and HPAECs were serum starved for 24 hours, treated with 40 ng/ml VEGF for 0, 0.5, 1, 2, 4, 12 and 24 hours, and then harvested for total RNA. Northern blots were performed and probed for human MnSOD. […]

In test [5] the test system is eNOS mRNA. Particulars: either cell type (HCAEC, HPAEC), 40 ng/ml VEGF. Here is the method: as §2, §3
The subject of test [6] is MnSOD protein. Particulars: 40 ng/ml VEGF; for MnSOD protein: 0.5-24 hours. As to the method: as §1
Serum-starved HCAECs and HPAECs were treated with 40 ng/ml VEGF for 0.5-24 hours and then harvested for total protein.

Test [7] has as its system eNOS protein. The note with it: 40 ng/ml VEGF, any time point 0.5-24 hours. Here is the method:
as §1, with “Peroxidase activity was visualized with an enhanced chemiluminescense substrate system (Amersham, Arlington Heights, Ill., USA). Membranes were stripped and probed for eNOS and β-actin. Flow cytometry.” left out

Consider one substance from patent US20040001818A1, “Methods of inhibiting angiogenesis using NADPH oxidase inhibitors” (priority 2000, published 2004).

Where two headings read alike, the source gives them in different places.

Turning to VEGF, the “time of peak MnSOD mRNA levels” value in test [1] (HCAEC, 40 ng/ml VEGF) turned out to be 4 h; in test [4] it was 4 h. Further, the “MnSOD mRNA levels” value in test [1] (HCAEC, 40 ng/ml VEGF, between one hour and 24 hours) is listed as “increased”; in test [4] (between 2 and 24 hours), “increased”. Further, the “VEGF concentration of maximal MnSOD induction” value in test [1] (dose-response 0, 1, 5, 10, 100 ng/ml VEGF) is 100 ng/mL. Besides, the “DCF oxidation (ROS production)” value in test [2] is reported as “no change”. Further, the “MnSOD mRNA levels in other tissues (lung, brain, liver, spleen, skeletal muscle)” value in test [3] is listed as “not”. The “MnSOD mRNA levels in the heart and the kidney” value in test [3] was “increased”. In addition, in test [5], the “eNOS mRNA induction” value was “not induced”. For the same substance, the “time of maximal MnSOD protein levels” value in test [6] (HCAECs) and in test [6] (HPAECs) was 12 to 24 h throughout. In addition, the MnSOD protein result in test [6] (HCAECs) and in test [6] (HPAECs) was “significantly induced” each time. Also, the eNOS protein levels entry in test [7] was “did not increase”.
